Test results reported in US12351606B2, “Compositions and related methods for modulating transcriptional activation by incorporating gag motifs upstream of core promoter elements” (UNIVERSITY OF VIRGINIA PATENT FOUNDATION, priority 2007, dated 2025).

B1: GAG motif: SEQ ID NO:1 regulatory region of NtPMT1a promoter: G-box like, AT-rich and GCC-like box elements; tested as tetramer before CaMV 35S -46::GUS (nucleic acid, listed as Nicotiana tabacum)
DNA: CTAACCCTGCACGTTGTAATGAATTTTTAACTATTATATTATATCGAGTTGCGCCCTCCACTCCTCGGTGTCCA
modifications: expressed or natural sequence
notes: tested as tetramer before CaMV 35S -46::GUS

Assays:
BY-2 cells = assay: GUS reporter activity of tetramer promoter constructs in transformed BY-2 cells with or without MeJA; format: cell-based, N. tabacum; settings: tetramer upstream of minimal CaMV 35S -46 promoter
Protocol: Promoter constructs were produced by annealing phosphorylated upper- and lower-strand oligonucleotides to create various elements containing a SpeI restriction site at the 5′ end and an XbaI restriction site at the 3′ end. These were introduced into MS23-β-glucuronidase (“GUS”) between the SpeI and XbaI sites.
Ten colonies of transformed Agrobacteria (A. tumefaciens) containing the promoter construct were picked from a fresh plate and inoculated into 10 ml YEB, containing 50 mg/l rifampicin and 50 mg/l kanamycin, in a 50 ml flask. Cell cultures were incubated overnight at 28° C. with shaking, an overnight culture (1 ml) was taken. Cultures were diluted with YEB plus antibiotics so that the OD600 was approximately 0.3. Agrobacteria were grown at 28° C. with shaking until the OD600 was about 0.6. Cells were pelleted by centrifugation. Supernatants were removed and agrobacteria were resuspended in 0.5 ml MS. Approximately 3 ml of wild type BY-2 cells were introduced into Petri dishes. Approximately 100 μl of undiluted Agrobacteria or 1:10 or 1:100 diluted agrobacteria were mixed with the BY-2 cells to infect them. After 2 days, the BY-2 cells were washed with 30 ml MS medium and left for 30 min before the supernatant was removed. Approximately 2 ml aliquots of the transformed BY-2 cells were deposited onto MS plates containing vitamins, 50 mg/l kanamycin, and 500 mg/l cefotaxin. Transformed calli were visible after 3-5 weeks.
Single transformed calli were picked from selection plates and put on fresh MS+agar plates containing vitamins, 50 mg/l kanamycin, and 500 mg/l cefotaxin. Additionally, small amounts of calli were deposited into micro-wells (Corning 6 well culture cluster) with 6 ml MS medium containing vitamins, kanamycin, and cefotaxin. Samples in the micro-wells were grown at 28° C. for 4 days with shaking. Approximately 1 ml cells from the micro-wells were subcultured to new micro-wells with 5 ml fresh MS medium with vitamins, 50 mg/l kanamycin, and 500 mg/l cefotaxin. BY-2 cells were grown at 28° C. for 3 days with shaking. Then ten independent lines were chosen and 0.4 ml cells from each of the liquid cultures were subcultured to a 250 ml Erlenmeyer flask with 45 ml MS medium, vitamins, 50 mg/l kanamycin, and 500 mg/l cefotaxin. Cells were grown at 28° C. for 2 days with shaking. Then 10 ml cells from each flask were introduced into new 250 ml Erlenmeyer flasks with 40 ml MS medium containing vitamins without hormones (−2.4D) and antibiotics. The BY-2 cells were grown at 28° C. for 1 day with shaking. After 1 day BY-2 cells were treated with different amounts of methyl jasmonate (MeJA).
(§1) Histochemical staining for GUS activity and GUS activity determination was performed as described by Jefferson (1987).
An improved method for the analysis of promoter activity in BY-2 cells was developed. Transformed BY-2 calli were grown on selection plates and subsequently grown as liquid cultures in MS medium. For each individual construct ten independent lines were chosen. Approximately 0.5 ml cells from each of the liquid cultures were subcultured together in MS medium that contain vitamins, kanamycin, and cefotaxin. After 2 days, the cells were diluted in fresh MS medium containing vitamins without hormones (−2.4D) to reduce any stress response induced by cell density, and to deplete the medium of auxin. It has been shown previously that high auxin levels in the medium decreased the extent of MeJA-induced NtPMT:GUS expression (Xu and Timko, 2004). After 1 day BY-2 cells were treated with 100 μM MeJA. After 48 hours cell samples were taken, and were used to determine the GUS activity. For statistical analysis, each experiment was repeated four times and to avoid day to day variation in the GUS activities, and the data were normalized. These cell culture conditions ensured both a rapid and uniform response to MeJA.

tobacco plants = assay: Histochemical GUS staining of transgenic tobacco plants after wounding or MeJA; format: in vivo, N. tabacum; settings: tetramer constructs, GUS staining after 72 hours
Protocol: as §1
Ten colonies of the transformed Agrobacteria containing a promoter construct of interest were picked from a fresh plate and inoculated into 10 ml YEB, containing 50 mg/l rifampicin, and 50 mg/l kanamycin, in a 50 ml flask. Cell cultures were incubated overnight at 28° C. with shaking. Approximately 1 ml of overnight culture was taken. Cultures were diluted with 50 ml YEB plus antibiotics so that the OD600 was approximately 0.3. Agrobacteria were grown at 28° C. with shaking until the OD600 was approximately 0.6. The cells were then pelleted by centrifugation. Supernatants were removed and Agrobacteria were resuspended in 40 ml fresh YEB by pipetting with a 1 ml tip. Wild type tobacco leaves were cut into small pieces under sterile conditions and put in a 50 ml beaker. Agrobacteria solution was poured onto the tobacco leaves and the mixture was swirled together and left for 5 min for the Agrobacteria to infect the leaves. Infected leaves were put on MS plates with filter paper (to limit Agrobacteria grow). […] Plates were left for 2 days in the dark. After 2 days the tobacco pieces were transferred onto MS plates containing 1 mg/l 6 BA, 500 mg/l cefotaxin and 100 mg/l kanamycin. Samples were left in the light at 28° C. […]

Molecule	promoter activity / promoter strength (BY-2 cells)	response of GUS expression to MeJA treatment (BY-2 cells; 100 μM MeJA, 48 hours)	MeJA inducibility of GUS expression (relative fold inducibility) (BY-2 cells; 100 μM MeJA, 48 hours)	MeJA-inducible expression in roots (tobacco plants; 25 μM MeJA)	wound-inducible expression in roots (tobacco plants; wounding of roots or leaves)
AT-rich element: SEQ ID NO:3; tetramer in front of minimal CaMV 35S -46 promoter (DNA TAATGAATTTTTAACTATTATATTATAT; expressed or natural sequence; listed as Nicotiana tabacum)	only low level promoter activity	characteristic reduction in promoter activity after MeJA addition	–	–	–
G Box-like element: SEQ ID NO:2 (GCACGTTG); tetramer in front of minimal CaMV 35S -46 promoter (expressed or natural sequence; listed as Nicotiana tabacum)	Low promoter activity	characteristic reduction after MeJA exposure	–	–	–
GCC-like box: SEQ ID NO:4; tetramer in front of minimal CaMV 35S -46 promoter (DNA TGCGCCCTCCACTCCTCGGTGTCCA; expressed or natural sequence; listed as Nicotiana tabacum)	only low level promoter activity	characteristic reduction in every line tested after MeJA addition	–	–	–
B1	much stronger than the G Box-GCC element	–	approximately 35 fold	showed inducibility by MeJA	can direct wound-inducible expression
